Results on eleven compounds are retold here after US8623859B2, “Bradykinin B1 antagonists” (Evotec AG, priority 2008, dated 2014).

Counter-ions that a name gives are not always drawn.

The target in this test is T1, human B1 (Homo sapiens, UniProt P46663).
T1 construct: host or cells: CHO-K1
T1 sequence (P46663 1-353): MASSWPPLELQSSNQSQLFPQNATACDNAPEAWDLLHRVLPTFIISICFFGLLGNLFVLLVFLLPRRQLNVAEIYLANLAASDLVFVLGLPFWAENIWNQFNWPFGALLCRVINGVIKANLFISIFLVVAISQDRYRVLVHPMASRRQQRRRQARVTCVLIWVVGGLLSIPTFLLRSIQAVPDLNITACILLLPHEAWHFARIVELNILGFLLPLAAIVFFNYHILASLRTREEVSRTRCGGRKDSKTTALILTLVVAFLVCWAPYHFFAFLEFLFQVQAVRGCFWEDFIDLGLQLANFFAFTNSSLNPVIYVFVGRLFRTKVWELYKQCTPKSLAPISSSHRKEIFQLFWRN
The test can be described thus: Calcium flux assay for Bradykinin B1 antagonist, CHO-K1 cell line expressing human B1. The format is cell-based. The conditions noted are these: CHO-K1 cells expressing human B1, agonist Lys-(Des-Arg)-Bradykinin, read-out: Potency (IC50 value against human B1). In outline: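 CHO-K1 cells expressing human B1, loaded with 5 μM Fluo-4AM (2 h, 37° C) in HEPES buffer pH 7.4 with probenecid and 0.1% BSA, were preincubated 30 min at 25° C with compound (8 concentrations, triplicate, 1% DMSO) before B1 agonist addition. Ca2+ fluorescence monitored at 538 nm; background-normalized integrated values plotted against log antagonist concentration.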
For orientation: A change in cytosolic calcium serves as a functional read-out for many receptors and channels.
For `COc1cc(C)c(S(=O)(=O)N(C)Cc2nnc(C(=O)N(C)CCc3ccc(C4=NCCN4)cc3)s2)c(C)c1` [Ex 328, N-{2-[4-(4,5-Dihydro-1H-imidazol-2-yl)phenyl]ethyl}-5-({[(4-methoxy-2,6-dimethylphenyl)sulfonyl](methyl)amino}methyl)-N-methyl-1,3,4-thiadiazole-2-carboxamide], the IC50 was less than 10 nM.

`COc1cc(C)c(S(=O)(=O)N(C)Cc2nnc(C(=O)N(C)Cc3ccc(CN4CCCC4)cc3)s2)c(C)c1` [Ex 329, 5-({[(4-Methoxy-2,6-dimethylphenyl)sulfonyl](methyl)amino}methyl)-N-methyl-N-[4-(pyrrolidin-1-ylmethyl)benzyl]-1,3,4-thiadiazole-2-carboxamide]: the IC50 was in the range of 100 to 1000 nM.

In the case of `COc1cc(C)c(S(=O)(=O)N(C)Cc2nnc(C(=O)NCCc3ccc(C4=NCCN4)cc3)s2)c(C)c1` [Ex 330, N-{2-[4-(4,5-Dihydro-1H-imidazol-2-yl)phenyl]ethyl}-5-({[(4-methoxy-2,6-dimethylphenyl)sulfonyl](methyl)amino}methyl)-1,3,4-thiadiazole-2-carboxamide trifluoroacetamide], the IC50 was less than 10 nM.

As to `COc1cc(C)c(S(=O)(=O)N(C)Cc2nnc(C(=O)N(C)Cc3cccc(CN4CCCC4)c3)s2)c(C)c1` [Ex 331, 5-({[(4-Methoxy-2,6-dimethylphenyl)sulfonyl](methyl)amino}methyl)-N-methyl-N-[3-(pyrrolidin-1-ylmethyl)benzyl]-1,3,4-thiadiazole-2-carboxamide trifluoroacetate], the 50% inhibitory concentration (IC50) fell in the range of 10 to 100 nM.

Take `COc1cc(C)c(S(=O)(=O)N(C)Cc2nnc(C(=O)N3CCN(C4CCN(C)CC4)CC3)s2)c(C)c1` [Ex 332, 4-Methoxy-N,2,6-trimethyl-N-[(5-{[4-(1-methylpiperidin-4-yl)piperazin-1-yl]carbonyl}-1,3,4-thiadiazol-2-yl)methyl]benzenesulfonamide trifluoroacetamide]: the concentration for half-maximal inhibition (IC50) was in the range of 100 to 1000 nM.

As for `COc1cc(C)c(S(=O)(=O)N(C)Cc2nnc(C(=O)N3CCN(CC4CCN(C)CC4)CC3)s2)c(C)c1` [Ex 333, 4-Methoxy-N,2,6-trimethyl-N-{[5-({4-[(1-methylpiperidin-4-yl)methyl]piperazin-1-yl}carbonyl)-1,3,4-thiadiazol-2-yl]methyl}benzenesulfonamide], the IC50 lay within 100 to 1000 nM.

For `COc1cc(C)c(S(=O)(=O)N(Cc2nnc(C(=O)N3CCN(C4CCN(C)CC4)CC3)s2)C2CC2)c(C)c1` [Ex 334, N-Cyclopropyl-4-methoxy-2,6-dimethyl-N-[(5-{[4-(1-methylpiperidin-4-yl)piperazin-1-yl]carbonyl}-1,3,4-thiadiazol-2-yl)methyl]benzenesulfonamide], the IC50 was less than 10 nM.

Consider `COc1cc(C)c(S(=O)(=O)N(Cc2nnc(C(=O)N3CCN(CC4CCN(C)CC4)CC3)s2)C2CC2)c(C)c1` [Ex 335, N-Cyclopropyl-4-methoxy-2,6-dimethyl-N-{[5-({4-[(1-methylpiperidin-4-yl)methyl]piperazin-1-yl}carbonyl)-1,3,4-thiadiazol-2-yl]methyl}benzenesulfonamide], for which the 50% inhibitory concentration (IC50) is less than 10 nM.

On to `COc1cc(C)c(S(=O)(=O)N(Cc2nnc(C(=O)N3CCN(CCCN4CCCC4)CC3)s2)C2CC2)c(C)c1` [Ex 336, N-Cyclopropyl-4-methoxy-2,6-dimethyl-N-[(5-{[4-(3-pyrrolidin-1-ylpropyl)piperazin-1-yl]carbonyl}-1,3,4-thiadiazol-2-yl)methyl]benzenesulfonamide], for which the 50% inhibitory concentration (IC50) lay within 10 to 100 nM.

As to `COc1cc(C)c(S(=O)(=O)N(Cc2nnc(C(=O)N3CCC(CCN4CCCC4)CC3)s2)C2CC2)c(C)c1` [Ex 337, N-Cyclopropyl-4-methoxy-2,6-dimethyl-N-[(5-{[4-(2-pyrrolidin-1-ylethyl)piperidin-1-yl]carbonyl}-1,3,4-thiadiazol-2-yl)methyl]benzenesulfonamide], the IC50 is less than 10 nM.

`COc1cc(C)c(S(=O)(=O)N(C)Cc2nnc(C(=O)N3CCN(CC4CCN(C)CC4)CC3)[nH]2)c(C)c1` [Ex 338, 4-Methoxy-N,2,6-trimethyl-N-{[5-({4-[(1-methylpiperidin-4-yl)methyl]piperazin-1-yl}carbonyl)-4H-1,2,4-triazol-3-yl]methyl}benzenesulfonamide]: the IC50 is 100 to 1000 nM.

A word on the IC50: it is the concentration at which inhibition is half-maximal.
